Data: patent US20230057699A1, “NANOTECHNOLOGY-BASED PESTICIDES AND INTERMEDIATES, COMPOSITIONS AND TREATMENTS USING THE SAME” (priority 2020, published 2023)
Values joined by “and” are separate entries in the source; they are usually repeats but may differ in a detail not shown here. Identical values can stand only once. Like-named read-outs stand apart in the source and are kept apart here.

Legend:
[1] = tested on: E. coli DH5α; assay: Antimicrobial growth curves; assay type: cell-based, Escherichia coli; conditions: 10 ppm
Method: (§1) FIG. 8 depicts the antimicrobial effects of positively charged NH2—AgNPs compared with carboxylate/citrate AgNPs (cit-AgNPs) and Ag^+ ions on E. coli DH5α and K12 growth (panel A), and the effects of the surface interaction of 10 mg/L (equivalent to 10 ppm) NH2—AgNPs compared with the effects of the surface interaction of Cit-AgNPs and Ag^+ ions on E. coli DH5α (panel B).

[2] = tested on: E. coli K12; assay: Antimicrobial growth curves; assay type: cell-based, Escherichia coli; conditions: 10 ppm
Method: as §1

[3] = tested on: E. coli DH5α; assay: Surface interaction with bacterial cells (imaging); assay type: cell-based, Escherichia coli; conditions: 10 mg/L (as total Ag), 72 h
Method: as §1

[4] = tested on: Soybean seeds; assay: Soybean seedling biomass; assay type: in vivo, Glycine max; conditions: 0.2-50 mg/L, day-7
Description: FIG. 13 depicts the effect of exposure to NH2—AgNPs on soybean seedling biomass.

[5] = tested on: Pseudokirchneriella subcapitata; assay: Green alga cell growth (cell count); assay type: cell-based
Method: (§2) Control group (panel A) received only growth medium (100 mL). Each treatment received 1.2×10^6 cells/mL on day-0 and were allowed to grow until day-28 when the experiments were halted. Cell count was recorded on day-7 (acute), day-14 and day-28 (chronic).
(§3) 1.a. […] Experiments were repeated twice for NoPest-Ag5, Ag+ ions and control groups, and data were combined. Algae were cultured in an Erlenmeyer flask with 100 mL growth media using a16:8 h day:night cycle at 25±2° C. under the LED lighting of 4830 lux. Microscopic analysis coupled with hemocytometer was used to measure cell growth, and total chlorophyll (chlorophyll [a+b]) was used to measure primary productivity, in algae.

[6] = tested on: Pseudokirchneriella subcapitata; assay: Green alga total chlorophyll (a+b) analysis; assay type: cell-based
Method: as §2, with “mL). Chlorophylls (a and b) were extracted using a 95% ethanol method and measured using an UV-Vis spectrophotometer (Hach DR6000).” for “mL).”, “Chlorophylls were” for “Cell count was”
as §3
1.b. Chlorophyll analysis: Chlorophylls (a and b) were extracted using 95% ethanol method, measured using UV-Vis spectrophotometer (Hach DR6000), and reported as total chlorophyll (a+b).

[7] = tested on: Daphnia magna; assay: Daphnia magna chronic 21-day reproduction test; assay type: in vivo
Description: FIG. 23 depicts a Daphnia magna 21-day (chronic) reproduction test.
This mirrors OECD 202, Daphnia sp. Reproduction Test.

[8] = tested on: Corn (Zea mays) seeds; assay: Corn seed germination; conditions: 0.25-50 mg/L, 7 days
[9] = tested on: soybean seed; assay: Soybean seed germination; conditions: 0.25-50 mg/L, 7 days
[10] = tested on: Daphnia magna; assay: Daphnia magna acute 48-hour survival test
Method: FIG. 22 depicts a Daphnia magna 48-hour (acute) toxicity test.
This mirrors OECD 202, Daphnia sp. Reproduction Test. […] Daphnia were cultured in a beaker (500 mL) using 16:8 h day:night cycle at 20±2° C. under the diffused cool LED lighting.

[11] = tested on: honeybee, Apis mellifera L.; assay: Honeybee 48-hour oral exposure test (OECD 213); assay type: in vivo; conditions: for 48-hour Mortality: per replicate of 10 bees; for Consumption after 6 hours: Consumed: per replicate, 200 μL provided
Method: (§4) Pollinators, especially honeybees, are susceptible to certain insecticides. Understanding the susceptibility of honeybees will determine the test substance's safe use in the environment as well as when the product should be used in relation to honeybee activity.
Honeybee 48-hour Oral Exposure Test: Oral exposure followed OECD Test 213 method. […] The test included nominal test item doses ranging from 1 to 400 ng a.i./bee (ppt a.i./bee) and a concurrent negative control group. Additional groups of bees from the same source were dosed with imidacloprid, at 0.0013, 0.0032 and 0.008 μg a.i./bee (ppb a.i./bee) as a positive control substance, also conducted concurrently. Three replicate test chambers were maintained in each control and treatment group, with 10 bees in each test chamber. Observations of mortality and other signs of toxicity were made for approximately 48 hours after dosing. Cumulative mortality observed in the test groups was used to determine the LD50 (lethal dose that kills 50% of the test populations).

[12] = tested on: honeybee, Apis mellifera L.; assay: Honeybee 48-hour contact (dermal) exposure test (OECD 214); assay type: in vivo; conditions: for 48-hour Mortality: per replicate of 10 bees, listed as Positive Control
Method: as §4
Honeybee 48-hour Contact (Dermal) Exposure Test Contact exposure followed OECD Test 214 method. Young adult worker honeybees were exposed to six test doses ranging from 0.1 to 40 ng a.i./bee administered topically to the dorsal side of the thorax of each bee in a 2 μL droplet of water containing 1% Tween 80 surfactant. A negative control group and a surfactant control group were maintained concurrently. Additional groups of bees from the same source were nominally dosed with imidacloprid, at 0.032, 0.08 and 0.2 μg a.i./bee as a positive control substance. The positive control test was conducted concurrently with the definitive test and the bees were administered topically to the dorsal side of the thorax of each bee in a 2.0 μL droplet with water containing […] surfactant. Three replicate test chambers were maintained in each control and treatment group, with 10 bees in each test chamber. Observations of mortality and other signs of toxicity were made for approximately 48 hours after dosing. Cumulative mortality observed in the test groups was used to determine the LD50.

[13] = tested on: honeybee, Apis mellifera L.; assay: as above; assay type: in vivo; conditions: 0.008 μg a.i./bee [4 mg a.i./L], per replicate of 10 bees, listed as Positive Control
[14] = 0.0013 μg a.i./bee [0.0065 mg a.i./L]
[15] = 0.0032 μg a.i./bee [0.016 mg a.i./L]
[16] = 0.0032 μg a.i./bee [0.016 mg a.i./L], listed as Positive Control
[17] = 0.008 μg a.i./bee [0.04 mg a.i./L]
[18] = 0.008 μg a.i./bee [0.04 mg a.i./L], listed as Positive Control
[19] = 0.032 μg a.i./bee [16 mg a.i./L]
[20] = 0.2 μg a.i./bee [100 mg a.i./L]

## [Ag+] [Ag^+ ions]
[1]
  Nature of effect based on growth curves: bacteriostatic effects
[2]
  Nature of effect based on growth curves: bacteriostatic effects
[3]
  Cell integrity after surface interaction: intact cells were observed, but with a shape change to a hexagonal honeycomb like phenotype lacking adherent fimbriae
[4]
  Seedling biomass compared to control (water only): promoted seedling biomass
[5]
  Comparative toxicity of all four test compounds (cell count): most toxic
[5]; at or above 1 mg/L
  Algal growth compared to control (cell count): inhibited algal growth
[6]; 10 mg/L
  Toxicity by total chlorophyll: less toxic compared to NoPest-Ag5
[7]; 0.01 mg/L
  Mean decrease in reproduction: 6.6%
[7]; concentrations except 0.01 mg/L
  Mean increase in reproduction: 126.6-1120%
[8]
  Toxicity in germination of corn: non-toxic
[9]
  Toxicity in germination of soybean: non-toxic

## [Cd+2] [Cd^2+ ions]
[5]; 0.5 mg/L
  Algal growth compared to control (cell count): stimulatory
[5]; at or above 0.75 mg/L
  Algal toxicity (cell count): toxicity of Cd^2+ ions increased
[6]; 0.05-0.75 mg/L
  Chlorophyll synthesis: chlorophyll synthesis did occur
[6]; at or above 1 mg/L
  Chlorophyll synthesis compared to control: inhibited chlorophyll synthesis

## [Cu+2] [Cu^2+ ions]
[10]; 0.5 mg/L
  Mean survival: 0%

## O=[N+]([O-])NC1=NCCN1Cc1ccc(Cl)nc1 [Imidacloprid]
[5]
  Comparative toxicity of all four test compounds (cell count): least toxic
[5]; all concentrations tested
  Algal toxicity based on cell count: generally non-toxic, except at a high concentration of 100 mg/L
[5]; by day-28
  Cell growth: concentration-dependent inhibition above 1 mg/L
[6]
  Comparative toxicity of all four test compounds (chlorophyll): least toxic
  Toxicity by total chlorophyll: generally non-toxic
[10]; all concentrations tested
  Mean survival: 66.6-86.6%
[7]
  Reproduction compared with control: not significantly different from control
[11]; [14]
  48-hour Mortality Mean: 0%
  Consumption after 6 hours: Consumed, Mean: 198 µL
  48-hour Mortality: 0%
[11]; 0.0013 μg a.i./bee [0.0065 mg a.i./L], listed as Positive Control
  Consumption after 6 hours: Consumed: 200 μL (2×) and 195 μL
[11]; [15]
  48-hour Mortality Mean: 3%
  Consumption after 6 hours: Consumed, Mean: 163 µL
[11]; [16]
  48-hour Mortality: 0% (2×) and 10%
  Consumption after 6 hours: Consumed: 140 µL and 150 µL and 200 µL
[11]; [17]
  48-hour Mortality Mean: 7%
  Consumption after 6 hours: Consumed, Mean: 88 µL
[11]; [18]
  48-hour Mortality: 0% (2×) and 20%
  Consumption after 6 hours: Consumed: 85 µL and 110 µL and 70 µL
[11]; 48-hr, 0.0013-0.008 μg a.i./bee
  Average survival: 93%-97%
[11]; 48 hours
  Appearance of surviving bees at test termination: appeared normal
[11]; positive control groups
  Mean consumption per replicate: 88 to 198 µL
[12]; 0.008 μg a.i./bee [4 mg a.i./L]
  48-hour Mortality Mean: 10%
[12]; [19]
  48-hour Mortality Mean: 33%
  48-hour Mortality: 40% and 10% and 50%
[12]; [20]
  48-hour Mortality Mean: 77%
  48-hour Mortality: 70% and 100% and 60%
[12]; 24 lethargic out of 54 surviving bees
  Surviving bees that appeared lethargic: 46.3%
[12]; 48-hour
  LD50: 0.11 μg a.i./bee
[12]; 48-hr, positive control doses, n=30 bees per concentration
  Average mortality: 10%-77%
[13]
  48-hour Mortality: 0% and 20% and 10%
